Data taken from PMC5423977, “Safety, pharmacokinetics, and pharmacodynamics of BMS-986142, a novel reversible BTK inhibitor, in healthy participants” (European Journal of Clinical Pharmacology, 2017).

How the values were obtained:
CD69 expression = tested on: CD69 expression; design: method as in PMID 27583770; conditions: in vitro; read-out: IC50 of CD69 inhibition derived from in vitro evaluation; cited from earlier work
[1] = rats, 1-month GLP toxicology study; cited from earlier work
[2] = tested on: collagen-induced arthritis model; conditions: combined with standard of care agents (e.g., MTX); cited from earlier work
[3] = Stability of BMS-986142 in human EDTA plasma and processed samples (bioanalytical validation); type: physicochemical
Description: Method validation was carried out according to the Bristol-Myers Squibb Standard Operating Procedures (SOPs) for chromatographic method validation which conforms to the U.S. FDA’s Good Laboratory Practice (GLP) regulations (21 CFR part 58). The validation experiments included but were not limited to the determination of the lower limit of quantification (LLOQ), specificity, accuracy and precision, recovery, and analyte stability under the expected conditions of sample transfer, sample storage, and sample preparation. The LLOQ of the assay was determined to be 1 ng/mL using six different lots of plasma. No interference from the endogenous components and the internal standard was observed.
The accuracy and precision data for BMS-986142, based on the maximum value from all six QC levels, obtained using one-way ANOVA in Watson are listed in Table 1. The recovery of the analyte from human plasma during extraction was determined at 3 ng/mL and 800 ng/mL for BMS-986142, at 3 ng/mL, 30 ng/mL and 750 ng/mL for methotrexate and 7-hydroxymethotrexate, by comparing the response ratios in human plasma samples spiked with the analyte prior to extraction with those spiked post-extraction. The recovery for BMS-986142 is 89-90%. The recoveries for methotrexate and 7-hydroxymethotrexate are 88-94% and 83-88%, respectively. The room temperature, freeze-thaw, and frozen storage stability of BMS-986142 were evaluated in triplicate or quadruplicate using Low QC, High QC, and Dilution QC. The reinjection integrity was assessed by re-injecting an entire run. The deviations of the mean predicted concentrations of the test samples from the nominal concentrations were used as an indicator of the stability of the analyte.

[4] = Effect of BMS-986142 on single-dose plasma PK of MTX (DDI); type: in vivo, human; conditions: BMS-986142 350 mg QD, MTX 7.5 mg single dose
Description: Blood samples for the measurement of BMS-986142 were collected up to 168 h after dosing of BMS-986142 on day 1 for participants in SAD. In MAD, blood samples were collected up to 24 h on day 1 and up to 120 h on day 14 (the last day of treatment). Blood samples for the measurement of MTX were collected up to 48 h after dosing of MTX on days 1 and 8.
Plasma samples were analyzed for BMS-986142 levels with a validated method using liquid chromatography tandem mass spectrometry (LC-MS/MS) detection. The analyte was extracted from 50 μL of plasma using a liquid–liquid extraction method. Methyl tert-butyl ether was used as the extraction solvent. The lower limit of quantification (LLOQ) was 1.00 ng/mL in plasma. Plasma samples were analyzed for methotrexate levels using LC-MS/MS detection. Analytes were isolated from 50 μL plasma through solid phase extraction using Waters Oasis MAX, 10-mg, 96-well SPE plates. The final extract was analyzed using LC-MS/MS detection. LLOQ was 1.00 ng/mL in plasma. Detailed methodology quantitating the concentration level of BMS-986142 and MTX is provided in Online Resource 10.
Individual subject pharmacokinetic parameters for BMS-986142 and MTX were derived by a non-compartmental method using validated PK software (WinNonLin version 6.3; Pharsight Corporation, Mountain View, CA, USA). The following PK parameters for BMS-986142 and MTX were derived from plasma concentration versus time data: maximum observed plasma concentration (Cmax); minimum observed plasma concentration (Cmin); time to maximum observed plasma concentration (Tmax); area under the plasma concentration-time curve from time zero to the time of the last quantifiable concentration (AUC(0-T)), from time zero extrapolated to infinite time (AUC(inf)), and in one dosing interval (AUC(TAU)); terminal plasma half-life (T1/2); and AUC accumulation index (AI_AUC). AI_AUC was calculated to divide AUC(TAU) on day 14 by AUC(TAU) on day 1.
Statistical analyses were conducted to assess the effect of coadministration of BMS-986142 on the PK of MTX. For all treatment comparisons, a linear mixed-effect model was fitted to the log-transformed PK parameters Cmax, AUC(0-T), and AUC(inf). Point estimates and 90% CIs for differences on the log-scale were exponentiated to obtain estimates for geometric mean ratios (GMRs) and respective 90% CIs on the original scale. Sample size determination is based on consideration of the precision of the estimate of the GMRs of AUCs of MTX with and without BMS-986142. With 9 evaluable subjects, there will be an 80% probability that the 90% CI of AUC(INF) GMR will be within 89.9 to 111.2% of the point estimate. These precision estimates are based on an assumption that Cmax and AUC(INF) of MTX are log-normally distributed with intrasubject CV of 14.67 and 10.38%, respectively, as calculated from Namour et al..

[5] = 19.6 hours at RT in Plasma, Dilution QC 10000.00
[6] = 19.6 hours at RT in Plasma, High QC 800.00
[7] = 19.6 hours at RT in Plasma, Low QC 3.00
[8] = 96 h Processed sample stability, Dilution QC 10000.00
[9] = 96 h Processed sample stability, High QC 800.00
[10] = 96 h Processed sample stability, Low QC 3.00
[11] = 7 days at 5 °C Re-injection integrity, Dilution QC 10000.00
[12] = 7 days at 5 °C Re-injection integrity, High QC 800.00
[13] = 7 days at 5 °C Re-injection integrity, Low QC 3.00
[14] = 327 day at -20 °C in Plasma, Dilution QC 10000.00
[15] = 327 day at -20 °C in Plasma, High QC 800.00
[16] = 327 day at -20 °C in Plasma, Low QC 3.00
[17] = After 4 Freeze-Thaw Cycle in Plasma, Dilution QC 10000.00
[18] = After 4 Freeze-Thaw Cycle in Plasma, High QC 800.00
[19] = After 4 Freeze-Thaw Cycle in Plasma, Low QC 3.00

## Cc1c(-c2c(F)cc(C(N)=O)c3[nH]c4c(c23)CC[C@H](C(C)(C)O)C4)cccc1-n1c(=O)c2cccc(F)c2n(C)c1=O [BMS-986142, 6-fluoro-5-(R)-(3-(S)-(8-fluoro-1-methyl-2,4-dioxo-1,2-dihydroquinazolin-3(4H)-yl)-2-methylphenyl)-2-(S)-(2-hydroxypropan-2-yl)-2,3,4,9-tetrahydro-1H-carbazole-8-carboxamide]
CD69 expression
  IC50: 90 nM
[1]
  Steady-state exposure (AUC) at NOAEL: 22,920 ng h/mL
[2]
  Efficacy against disease endpoints in combination: Added benefit against disease endpoints
[3]; [5]
  Stability, %Dev: 3.1%
  Stability, Mean Conc.: 10314.35 ng/mL
[3]; [6]
  Stability, %Dev: 2.0%
  Stability, Mean Conc.: 816.24 ng/mL
[3]; [7]
  Stability, %Dev: 8.3%
  Stability, Mean Conc.: 3.25 ng/mL
[3]; [8]
  Stability, %Dev: -3.3%
  Stability, Mean Conc.: 9666.77 ng/mL
[3]; [9]
  Stability, %Dev: 1.7%
  Stability, Mean Conc.: 813.52 ng/mL
[3]; [10]
  Stability, %Dev: 4.0%
  Stability, Mean Conc.: 3.12 ng/mL
[3]; [11]
  Stability, %Dev: 9.9%
  Stability, Mean Conc.: 10986.50 ng/mL
[3]; [12]
  Stability, %Dev: 4.7%
  Stability, Mean Conc.: 837.90 ng/mL
[3]; [13]
  Stability, %Dev: 2.7%
  Stability, Mean Conc.: 3.08 ng/mL
[3]; [14]
  Stability, %Dev: -4.2%
  Stability, Mean Conc.: 9578.40 ng/mL
[3]; [15]
  Stability, %Dev: 1.9%
  Stability, Mean Conc.: 815.36 ng/mL
[3]; [16]
  Stability, %Dev: 5.0%
  Stability, Mean Conc.: 3.15 ng/mL
[3]; [17]
  Stability, %Dev: -7.6%
  Stability, Mean Conc.: 9241.55 ng/mL
[3]; [18]
  Stability, %Dev: -5.9%
  Stability, Mean Conc.: 752.66 ng/mL
[3]; [19]
  Stability, %Dev: -6.3%
  Stability, Mean Conc.: 2.81 ng/mL
[4]
  Effect on the pharmacokinetics of MTX: did not affect the pharmacokinetics of MTX
